In publication PMC6198068, “Discovery of a Novel Nav1.7 Inhibitor From Cyriopagopus albostriatus Venom With Potent Analgesic Efficacy” (Frontiers in Pharmacology, 2018):
Read-outs that look alike come from different tables or passages of the source. Where a SMILES comes first, the peptide text is derived from it. Bridges are numbered along the chain shown (N, C = ends).

Legend:
Nav1.7 = target: T1, Nav1.7 (Homo sapiens, UniProt Q15858); experiment: Use/frequency-dependent inhibition of Nav1.7; assay type: cell-based; settings: n = 4-5; for IC50: read-out: IC50 Nav1.7, repetitive pulses
T1 construct: expressed in transfected cells; host or cells: HEK293T
From the text: (§1) The cDNA genes encoding rat Nav1.4 and human Nav1.7 were subcloned into vectors pRGB4 and pcDNA3.1-mod, respectively. Mutations of rNav1.4 (N655D, Q657E, and N655D/Q657E) and hNav1.7 (D816N, E818Q, and D816N/E818Q) were constructed using the Gene Tailor Site-Directed Mutagenesis system (Invitrogen, Carlsbad, CA, United States), according to the manufacturer’s instructions. Nav1.2–Nav1.7 and mutant plasmids together with eGFP were transiently transfected into HEK293T cells while Nav1.8 together with eGFP was transiently transfected into ND7/23 cells by Lipofectamine 2000 (Invitrogen, Carlsbad, CA, United States). Additionally, plasmids β1- and β2-eGFP encoding the human β1 and β2 subunits, respectively, were co-transfected with those encoding WT Nav1.7 and Nav1.7 mutations in HEK293T cells. Human Nav1.9 was transfected into ND7/23 cells according to a previous report ([Zhou et al., 2017]). […] Cells with green fluorescent protein fluorescence were selected for whole-cell patch-clamp recordings 24 h after transfection.
(§2) Whole-cell patch-clamp recordings were performed at room temperature (20–25°C) using an EPC 10 USB Patch Clamp Amplifier (HEKA, Elektronik, Lambrecht, Germany). […] Data was analyzed by software Igo Pro 6.10A (WaveMetrics, Lake Oswego, OR, United States), SigmaPlot 10.0 (Sigma-Aldrich, St. Louis, MO, United States), OriginPro 8 (OriginLab Corp., Northampton, MA, United States), and GraphPad Prism 5 (GraphPad Software, San Diego, CA, United States). […]
Fast inactivation time constants were calculated by fitting current decay traces with a single exponential function using the I–V protocol described above. Recovery from fast-inactivation (repriming) was assessed by using a two-pulse protocol consisting of a depolarizing pulse to −10 mV for 50 ms to inactivate channels, followed by a step to −100 mV of variable duration (1 to 1024 ms) to promote recovery, and 50 ms test pulse to −10 mV to assess availability of channels. […]

[1] = system: formalin-induced paw licking in mice; experiment: Formalin-induced paw licking; assay type: in vivo, ICR mice; settings: for paw licking time, Phase I: control 90.3 ± 6.6 s; for paw licking time, Phase I / paw licking time, Phase II: mean ± SEM, n = 6–8; for paw licking time, Phase II: control 197.7 ± 20.7 s
Procedure: The ICR mice (18–22 g) used in this study were purchased from the Experimental Animal Center of SLac-kinda (Changsha, China). The animals were maintained at 20–25°C and freely allowed to standard rodent chow and water ad libitum. Ethical approval for in vivo experiments in animals was approved by the Animal Care and Use Committee (ACUC) at the Hunan Province Animal Management Office (HPAMO).
A formalin test was performed according to the previous method ([Owoyele et al., 2005]). […] The time spent licking the injected paw by each mouse was recorded by a digital stopwatch during Phase I (0–15 min post-injection) and Phase II (15–40 min post-injection).

Nav1.4/N655D/Q657E = target: T2, Nav1.4/N655D/Q657E (Rattus norvegicus, UniProt P15390, N655D/Q657E); experiment: Whole-cell patch-clamp, Nav1.4/N655D/Q657E in HEK293T cells; assay type: cell-based
T2 construct: expressed in transfected cells; host or cells: HEK293T
From the text: as §1, with “cells.” for “cells. Human Nav1.9 was transfected into ND7/23 cells according to a previous report ([Zhou et al., 2017]).”
as §2

T1 sequence (O60939 30-215): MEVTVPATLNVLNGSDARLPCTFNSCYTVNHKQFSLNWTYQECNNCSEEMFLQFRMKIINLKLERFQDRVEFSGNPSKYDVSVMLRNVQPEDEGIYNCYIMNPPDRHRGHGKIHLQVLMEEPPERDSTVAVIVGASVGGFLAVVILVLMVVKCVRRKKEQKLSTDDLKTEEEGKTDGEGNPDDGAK
T1 sequence (Q15858 other isoform, or with tags, fused parts or gaps): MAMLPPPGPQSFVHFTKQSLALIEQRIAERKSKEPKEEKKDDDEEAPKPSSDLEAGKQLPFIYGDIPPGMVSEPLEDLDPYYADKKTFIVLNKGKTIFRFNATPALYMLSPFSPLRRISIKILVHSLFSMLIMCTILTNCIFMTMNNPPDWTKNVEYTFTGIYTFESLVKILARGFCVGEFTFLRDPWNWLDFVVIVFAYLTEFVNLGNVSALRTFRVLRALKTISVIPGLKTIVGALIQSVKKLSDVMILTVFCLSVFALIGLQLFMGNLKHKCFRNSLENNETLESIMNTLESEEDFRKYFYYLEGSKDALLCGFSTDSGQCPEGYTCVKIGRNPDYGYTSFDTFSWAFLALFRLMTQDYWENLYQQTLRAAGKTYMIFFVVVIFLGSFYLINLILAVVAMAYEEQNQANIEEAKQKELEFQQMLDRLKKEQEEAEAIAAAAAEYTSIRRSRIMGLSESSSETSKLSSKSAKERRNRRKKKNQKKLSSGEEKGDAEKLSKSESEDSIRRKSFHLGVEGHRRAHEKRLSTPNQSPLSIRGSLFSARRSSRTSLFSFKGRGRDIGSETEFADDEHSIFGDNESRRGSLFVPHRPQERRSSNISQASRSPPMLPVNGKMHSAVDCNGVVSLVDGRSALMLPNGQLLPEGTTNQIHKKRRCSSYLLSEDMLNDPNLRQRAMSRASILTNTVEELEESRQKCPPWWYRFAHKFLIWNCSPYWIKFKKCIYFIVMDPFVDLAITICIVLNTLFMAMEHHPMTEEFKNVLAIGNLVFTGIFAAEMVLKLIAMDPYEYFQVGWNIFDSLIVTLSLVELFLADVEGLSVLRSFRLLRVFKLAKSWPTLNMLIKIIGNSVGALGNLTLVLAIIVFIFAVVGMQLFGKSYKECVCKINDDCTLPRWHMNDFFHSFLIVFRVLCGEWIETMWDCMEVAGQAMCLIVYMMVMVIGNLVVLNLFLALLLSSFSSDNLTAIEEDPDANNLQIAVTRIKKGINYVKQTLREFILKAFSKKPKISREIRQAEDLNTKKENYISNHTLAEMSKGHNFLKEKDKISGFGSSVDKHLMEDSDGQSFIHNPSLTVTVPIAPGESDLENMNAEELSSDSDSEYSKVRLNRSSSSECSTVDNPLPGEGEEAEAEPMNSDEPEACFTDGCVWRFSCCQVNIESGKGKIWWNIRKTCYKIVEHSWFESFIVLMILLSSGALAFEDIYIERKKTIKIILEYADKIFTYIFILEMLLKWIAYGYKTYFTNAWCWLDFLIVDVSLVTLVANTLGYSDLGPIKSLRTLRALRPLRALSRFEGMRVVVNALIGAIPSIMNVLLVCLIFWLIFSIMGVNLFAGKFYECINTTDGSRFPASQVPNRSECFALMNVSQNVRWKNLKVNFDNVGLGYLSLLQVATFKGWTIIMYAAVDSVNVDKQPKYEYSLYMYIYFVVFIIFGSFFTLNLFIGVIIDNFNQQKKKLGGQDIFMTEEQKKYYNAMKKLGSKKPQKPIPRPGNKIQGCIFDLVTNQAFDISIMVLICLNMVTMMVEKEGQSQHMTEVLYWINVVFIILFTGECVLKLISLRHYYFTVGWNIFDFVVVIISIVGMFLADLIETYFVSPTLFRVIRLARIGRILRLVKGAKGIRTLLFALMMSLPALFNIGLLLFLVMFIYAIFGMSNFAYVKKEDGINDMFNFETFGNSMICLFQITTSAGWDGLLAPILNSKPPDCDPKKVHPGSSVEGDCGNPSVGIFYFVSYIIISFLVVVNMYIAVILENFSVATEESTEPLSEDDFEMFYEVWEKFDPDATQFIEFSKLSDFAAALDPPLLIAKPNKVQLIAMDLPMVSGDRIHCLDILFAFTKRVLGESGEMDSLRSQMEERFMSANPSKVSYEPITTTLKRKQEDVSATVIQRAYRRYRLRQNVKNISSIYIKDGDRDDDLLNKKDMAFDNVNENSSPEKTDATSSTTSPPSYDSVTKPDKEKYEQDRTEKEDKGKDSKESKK
T1 sequence (Q07699 19-218, further chain): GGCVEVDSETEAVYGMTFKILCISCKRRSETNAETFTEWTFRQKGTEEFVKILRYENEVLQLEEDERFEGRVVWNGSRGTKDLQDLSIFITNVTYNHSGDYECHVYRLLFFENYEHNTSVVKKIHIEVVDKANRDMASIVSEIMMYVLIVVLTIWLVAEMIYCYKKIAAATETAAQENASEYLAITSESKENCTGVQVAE
T2 sequence (P15390 whole entry N655D/Q657E): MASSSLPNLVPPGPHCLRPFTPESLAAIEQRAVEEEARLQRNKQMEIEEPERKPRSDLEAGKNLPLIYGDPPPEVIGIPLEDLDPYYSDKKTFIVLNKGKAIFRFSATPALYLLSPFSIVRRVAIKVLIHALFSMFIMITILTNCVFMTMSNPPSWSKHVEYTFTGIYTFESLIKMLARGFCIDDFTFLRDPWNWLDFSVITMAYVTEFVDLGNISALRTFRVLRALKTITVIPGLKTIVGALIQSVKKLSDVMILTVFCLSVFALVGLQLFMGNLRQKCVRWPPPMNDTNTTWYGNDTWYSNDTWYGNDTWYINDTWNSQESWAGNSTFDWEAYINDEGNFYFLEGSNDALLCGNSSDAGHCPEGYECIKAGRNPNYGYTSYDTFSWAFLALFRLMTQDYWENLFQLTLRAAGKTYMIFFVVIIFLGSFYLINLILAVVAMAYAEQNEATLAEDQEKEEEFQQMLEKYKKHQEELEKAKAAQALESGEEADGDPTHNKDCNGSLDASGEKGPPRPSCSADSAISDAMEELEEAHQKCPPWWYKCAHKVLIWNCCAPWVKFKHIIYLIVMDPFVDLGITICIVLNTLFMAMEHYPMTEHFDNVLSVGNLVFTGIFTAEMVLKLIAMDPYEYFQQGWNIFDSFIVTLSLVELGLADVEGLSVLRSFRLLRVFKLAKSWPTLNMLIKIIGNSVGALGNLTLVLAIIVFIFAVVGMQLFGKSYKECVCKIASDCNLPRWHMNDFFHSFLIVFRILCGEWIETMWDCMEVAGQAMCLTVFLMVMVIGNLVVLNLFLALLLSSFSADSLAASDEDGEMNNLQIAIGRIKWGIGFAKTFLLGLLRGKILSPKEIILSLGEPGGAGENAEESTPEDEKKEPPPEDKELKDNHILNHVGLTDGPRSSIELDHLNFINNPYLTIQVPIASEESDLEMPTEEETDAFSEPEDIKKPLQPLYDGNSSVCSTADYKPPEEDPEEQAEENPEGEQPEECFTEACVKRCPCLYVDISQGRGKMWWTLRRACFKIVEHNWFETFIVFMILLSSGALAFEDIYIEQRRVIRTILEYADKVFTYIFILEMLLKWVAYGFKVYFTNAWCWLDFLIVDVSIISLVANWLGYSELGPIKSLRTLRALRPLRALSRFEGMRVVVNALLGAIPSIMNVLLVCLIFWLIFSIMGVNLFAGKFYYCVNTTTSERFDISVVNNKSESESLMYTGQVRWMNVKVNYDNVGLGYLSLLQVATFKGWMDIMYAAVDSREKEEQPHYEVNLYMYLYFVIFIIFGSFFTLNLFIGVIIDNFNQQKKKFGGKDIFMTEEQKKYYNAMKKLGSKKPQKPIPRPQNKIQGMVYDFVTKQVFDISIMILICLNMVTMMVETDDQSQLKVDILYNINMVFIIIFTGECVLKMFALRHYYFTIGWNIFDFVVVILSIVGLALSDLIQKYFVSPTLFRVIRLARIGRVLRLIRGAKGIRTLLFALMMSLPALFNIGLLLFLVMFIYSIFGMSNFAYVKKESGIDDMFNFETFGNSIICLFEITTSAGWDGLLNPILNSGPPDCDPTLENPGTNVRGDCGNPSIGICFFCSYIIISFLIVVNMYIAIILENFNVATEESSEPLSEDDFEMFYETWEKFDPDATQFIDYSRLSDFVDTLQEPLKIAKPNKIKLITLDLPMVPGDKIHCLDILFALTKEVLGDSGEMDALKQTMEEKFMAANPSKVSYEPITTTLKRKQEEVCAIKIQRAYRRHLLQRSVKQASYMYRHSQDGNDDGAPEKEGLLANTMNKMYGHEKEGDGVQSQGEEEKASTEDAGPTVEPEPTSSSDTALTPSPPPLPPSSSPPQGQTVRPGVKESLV

## CC(C)C[C@H](NC(=O)[C@H](CC(=O)O)NC(=O)[C@H](Cc1ccc(O)cc1)NC(=O)[C@H](CCCCN)NC(=O)[C@@H]1CSSC[C@@H]2NC(=O)[C@H](CCCCN)NC(=O)[C@H](CC(=O)O)NC(=O)[C@H](CC(N)=O)NC(=O)[C@H](CO)NC(=O)[C@@H]3CCCN3C(=O)[C@H](CC(N)=O)NC(=O)[C@@H]3CSSC[C@H](NC(=O)[C@H](C(C)C)NC(=O)[C@H](CC(C)C)NC(=O)[C@H](CO)NC(=O)[C@H](CO)NC(=O)[C@H](CO)NC(=O)[C@H](CCCCN)NC(=O)[C@H](CSSC[C@H](NC(=O)[C@H](C)N)C(=O)N[C@@H](CC(C)C)C(=O)NCC(=O)N[C@@H](Cc4ccccc4)C(=O)NCC(=O)N[C@@H](CCC(=O)O)C(=O)N[C@@H](CCCCN)C(=O)N3)NC2=O)C(=O)N[C@@H](CO)C(=O)N[C@@H](CCC(N)=O)C(=O)N[C@@H](CCCCN)C(=O)N[C@@H](Cc2c[nH]cn2)C(=O)N[C@@H](CCCCN)C(=O)N[C@@H](Cc2c[nH]c3ccccc23)C(=O)N1)C(=O)O [Ca2a] (H-ACLGFGEKCNPSNDKCCKSSSLVCSQKHKWCKYDL-OH; disulfide 2-17, 9-24, 16-31 (inferred); N-terminus and C-terminus assumed)
Nav1.7; 1, 5 and 10 Hz
  use/frequency dependence of inhibition for Nav1.7: did not show obvious use/frequency dependence
Nav1.7; 5 Hz
  IC50: 0.244 ± 0.0307 µM
Nav1.7; 10 Hz
  IC50: 0.185 ± 0.0238 µM
[1]; 0–15 min, 50 μg/kg i.p. 30 min before 5% formalin
  paw licking time, Phase I: 80.1 ± 4.6 s
[1]; 0–15 min, 100 μg/kg i.p. 30 min before 5% formalin
  paw licking time, Phase I: 79.4 ± 9.5 s
[1]; 0–15 min, 200 μg/kg i.p. 30 min before 5% formalin
  paw licking time, Phase I: 75.6 ± 7.7 s
[1]; 0–15 min, Ca2a 50, 100, 200 μg/kg, morphine 100 μg/kg, i.p.
  analgesic effect on Phase I compared to control: no analgesic effect
[1]; 15–40 min, 50 μg/kg i.p. 30 min before 5% formalin
  paw licking time, Phase II: 100.9 ± 16.2 s
[1]; 15–40 min, 100 μg/kg i.p. 30 min before 5% formalin
  paw licking time, Phase II: 67.2 ± 20.2 s
[1]; 15–40 min, 200 μg/kg i.p. 30 min before 5% formalin
  paw licking time, Phase II: 40.5 ± 7.1 s
[1]; 15–40 min, 50, 100, 200 μg/kg i.p.
  analgesic effect on Phase II: significant analgesic effect in a dose-dependent manner
[1]; formalin, hot plate and writhing together, Ca2a vs morphine
  analgesia relative to morphine, formalin test: dose-dependently equipotent or stronger analgesia than morphine
Nav1.4/N655D/Q657E; 1 μM, n = 4–5 cells
  inhibition of peak current of Nav1.4/N655D/Q657E: significantly inhibited
Nav1.4/N655D/Q657E; mean ± SEM, n = 4–5 cells per data point
  IC50: 0.238 ± 0.0261 µM
